# Measurements from patent publication US20230190756A1, “PHARMACEUTICAL FORMULATION FOR THE ELIMINATION OF CAUSATIVE AGENTS OF HERPESVIRAL INFECTIONS FROM THE TISSUES OF A MACROORGANISM” (priority 2017, published 2023).
# What was measured:
# EBV lymphoma cells = conditions: cited from earlier work
# [1] = system: p300-induced p65 acetylation; conditions: in vitro and in vivo; cited from earlier work
# EBV infection = conditions: cited from earlier work
# [2] = Biological activity of fully substituted derivatives (test not specified)
# Excerpt: Also, peak (2) was not divided into several small fragments, nor was it possible to separate it using different conditions of thin layer chromatography, which indicates the stable nature of the formed supramolecular structure from different derivatives.
# HDAC = conditions: cited from earlier work
Compound,biological activity [2],other results
Nc1ccccc1NC(=O)c1ccc(CNC(=O)OCc2cccnc2)cc1 [MS275],–,effective concentrations for sensitizing to ganciclovir (EBV lymphoma cells): effective at nanomolar concentrations
"O=C(O[C@@H]1Cc2c(O)cc(O)cc2O[C@@H]1c1cc(O)c(O)c(O)c1)c1cc(O)c(O)c(O)c1 [No 13 (Table 1), epigallocatechin gallate]",–,p300-induced p65 acetylation [1]: cancels; expression of cytokines induced by EBV infection (EBV infection): completely blocks
octaacetyl epigalocatechin [fully acetylated epigalocatechin],did not exhibit biological activity,–
octaacetyl glycyrrhizin [fully acetylated glycyrrhizin],did not exhibit biological activity,–
octasuccinyl epigalocatechin [Fully succinylated epigalocatechin],did not exhibit biological activity,–
octasuccinyl glycyrrhizin [Fully succinylated glycyrrhizin],did not exhibit biological activity,–
trichostatin A [TCA],–,IC50% (HDAC): in the nanomolar region
